Measurements: US11548880B2, “Modulators of hemoglobin” (Global Blood Therapeutics, Inc., priority 2018, dated 2023)

Columns and labels:
Hb = molecular target: T1, Hb (Homo sapiens, UniProt P68871+P69905); experiment: Whole blood assay: oxygen equilibrium curves (Hemox Analyzer), change in p50; assay type: cell-based; details: whole blood incubated 1 h at 37° C., equimolar ratio of hemoglobin to compound
T1 construct: from tissue; host or cells: whole blood
Description: Whole blood assay: Oxygen equilibrium curves (OECs) were collected using a TCS Hemox Analyzer (TCS Scientific Company, New Hope, Pa., USA) to measure changes in the binding affinity of O2 to Hb. Whole blood was incubated for 1 h at 37° C. with the indicated compounds in an equimolar ratio of hemoglobin to compound and diluted into TES (2-[[1,3-dihydroxy-2-(hydroxymethyl)propan-2-yl]amino]ethanesulfonic acid)/saline buffer prior to measurements. For example, for whole blood at 20% hematocrit [Hct], which corresponds to 1 mM Hb, a compound concentration of 1 mM was used (for example, for compounds 1-5), and the incubated sample diluted 50- to 100-fold. The concentration for compounds 6-44 (Diastereomers 1 and 2) varied but remained in equimolar ratio to hemoglobin. The diluted samples were then oxygenated with compressed air within the Hemox Analyzer and the OECs were collected during deoxygenation as previously described (Guarnone et al., Haematologica, 1995, 80, 426-430). p 50 (partial pressure of O2 at which Hb is 50% saturated with O2) values were obtained using a non-linear regression analysis. Percentage change in p50 [Δp50(%)] was calculated as follows: Δp50(%)=[(p50 of control)−p50 with compound)/p50 control]×100.

Rat PK, oral gavage = assay type: in vivo, Sprague-Dawley rats; details: male, Sprague-Dawley, rat, po, 10 mg/kg, oral gavage 10 mg/kg; for blood plasma ratio: whole blood and plasma, AUClast in blood divided by AUClast in plasma, rats; for half-life: whole blood, fasted male Sprague-Dawley rats, 0.5% methylcellulose suspension, blood
Description: Rat PK: A group of fasted male Sprague-Dawley rats were dosed via oral gavage at 10 mg/kg with test articles formulated in 0.5% methylcellulose suspension. Blood samples were collected through jugular vein at pre-selected time points. Blood samples were prepared by protein precipitation with ACN, vortexed and then centrifuged before supernatants were transferred for bioanalysis. Test article concentrations were measured by HPLC-MS-MS. Pharmacokinetic parameters were calculated using non-compartment analysis. The blood/plasma ratio was calculated by dividing the AUClast (i.e., the area under the curve calculated from t=0 to the last detectable time-point) in blood by the AUClast in plasma. The T1/2 was calculated via a linear regression of the terminal phase of the blood-time concentration profile.

PXR nuclear receptor = molecular target: T2, PXR nuclear receptor (Homo sapiens, UniProt O75469); experiment: CYP (PXR) assay: PXR nuclear receptor activation in DPX2 reporter cells; assay type: cell-based; details: fold PXR activation, 24 h
T2 construct: expressed in transfected cells; host or cells: DPX2 (stably transfected human hepatoma cells)
T2 sequence (O75469 1-434): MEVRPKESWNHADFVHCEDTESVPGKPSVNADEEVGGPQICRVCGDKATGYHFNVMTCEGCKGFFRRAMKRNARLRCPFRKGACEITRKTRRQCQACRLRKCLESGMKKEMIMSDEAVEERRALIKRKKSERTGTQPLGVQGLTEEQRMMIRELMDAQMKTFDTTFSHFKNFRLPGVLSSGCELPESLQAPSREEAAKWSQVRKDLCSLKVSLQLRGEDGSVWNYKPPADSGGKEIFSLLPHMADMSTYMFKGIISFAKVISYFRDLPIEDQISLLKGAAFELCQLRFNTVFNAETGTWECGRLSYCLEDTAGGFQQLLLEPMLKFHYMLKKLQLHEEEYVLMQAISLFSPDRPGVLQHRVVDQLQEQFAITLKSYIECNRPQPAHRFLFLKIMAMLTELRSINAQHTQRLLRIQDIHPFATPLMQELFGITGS
Description: CYP (PXR) Assay: PXR nuclear receptor activation utilizing stably-transfected human hepatoma cell lines (DPX2) were seeded in a 96-well plate. Twenty-four hours after seeding, the cells were treated with selected concentrations of compounds in duplicate wells, and cells then returned to the incubator for an additional 24 h. At the end of this incubation period, the number of viable cells/well were determined using Promega's Cell Titer Fluor cytotoxicity assay. Subsequently, Promega's ONE-Glo were added to the same wells and reporter gene activity were assessed. The average luminescent units for each compound dose of two replicates were divided by the average for the DMSO solvent control to determine the fold-induction. In accordance with industry standard, a threshold of ≥2.5-fold was used to flag compounds that have in vivo CYP induction risk.

T1 sequence (P69905 2-142 limits assumed): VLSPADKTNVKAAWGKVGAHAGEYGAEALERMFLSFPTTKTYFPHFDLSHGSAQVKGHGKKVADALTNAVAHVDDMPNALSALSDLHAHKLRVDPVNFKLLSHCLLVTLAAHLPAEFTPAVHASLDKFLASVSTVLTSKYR
T1 sequence (P68871 2-147 limits assumed): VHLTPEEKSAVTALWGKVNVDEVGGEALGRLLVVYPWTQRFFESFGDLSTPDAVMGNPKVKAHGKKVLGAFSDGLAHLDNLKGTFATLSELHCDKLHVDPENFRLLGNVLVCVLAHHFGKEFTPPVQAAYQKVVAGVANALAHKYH

Row | SMILES | Delta-p50 (%) (Hb) | blood plasma ratio (Rat PK, oral gavage) | half-life (Rat PK, oral gavage) | CYP (PXR) Flag (PXR nuclear receptor; at 30 μM) | CYP (PXR) Flag (PXR nuclear receptor; at 25 μM)
1 | O=Cc1c(O)cccc1OCC1CSCCN1C(=O)c1cccnc1CO (single isomer, unassigned) [Compound 13 (Enantiomer 1), 2-hydroxy-6-((4-(2-(hydroxymethyl)nicotinoyl)-thiomorpholin-3-yl)-methoxy)benzaldehyde] | 80.6% | 230 | 88 h | N (PXR activation < 2.5-fold) | –
2 | O=Cc1c(O)cccc1OC[C@@H]1CCCCN1C(=O)c1cccnc1CCO [Compound 1, (S)-2-hydroxy-6-((1-(2-(2-hydroxyethyl)nicotinoyl)piperidin-2-yl)methoxy)benzaldehyde] | 77.3% | 162 | 58 h | – | N^1 (PXR activation < 2.5-fold)
